Reference: patent EP0316690A2, “Agent for the treatment of ischemic heart diseases” (Dr. Karl Thomae GmbH, priority 1987, dated 1989)

Columns and labels:
[1] = tested on: glattmuskuläre coronare Muscarinrezeptoren; assay: Isolated perfused Langendorff heart: antagonism of the carbachol effect on coronary flow (CF); parameters: species or system Wistar Ratten; settings: for Coronarselektivität (Affinität für coronare vs. frequenzbeeinflussende M-Rezeptoren): comparison of CF and HR effects in the isolated rat heart; for pA₂-Werte Coronarflußeffekt CF: isolated rat heart, agonist Carbachol bolus 10⁻⁶ bis 10⁻²M, antagonist in perfusate, constant pressure 70 mm Hg
Description: (§1) Meßparameter sind Herzfrequenz und Coronarfluß.
(§2) Männliche Wistar Ratten mit einem Körpergewicht zwischen 300 und 350 g wurden mit Pentobarbital (70 mg/kg i.p.) anaesthe siert. […] Die Herzen wurden über die Aorta mit Krebs-Henseleit-Puffer (KHB) retograd bei einem konstanten Druck von 70 mm Hg perfundiert. Die Zusammensetzung des KHB betrug in mM: Kochsalz 114, Kaliumchlorid 4,7, Natriumbicarbonat 23,6, Kaliumdihydrogenphosphat 1,2, Magnesiumsulfat 1,1, Calziumchlorid 2,5. 11 mM Glucose wurden als Substrat beigefügt. Die Herzfrequenz (HR) wurde durch einen Tachographen (IFD, Mülheim) gemessen, der Coronarfluß (CF) wurde mittels eines elektromagnetischen Flowmeters (IFD, Mülheim) in Verbindung mit einer Sonde in dem zuführenden Teil der Aorta bestimmt.
(§3) Nach einer 15-minütigen Stabilisierungsphase in allen Experimenten wurde die erste Dosis-Wirkungs-Kurve erstellt. Dies geschah durch die Gabe von dem Fluß angepaßten Bolus-Injektionen (0,01 ml/10 ml CF) mit ansteigenden Dosierungen von Carbachol (10⁻⁶ bis 10⁻²M). Danach wurde die niedrigste Dosis des Antagonisten dem Perfusat beigegeben und die Dosis-Wirkungs-Kurve erneut aufgenommen. Darauffolgend gab man eine höhere Dosis des Antagonisten zu und es wurde der Einfluß von Carbachol auf den Coronarfluß (CF) und die Herzfrequenz (HF) erneut durch die Aufnahme von Dosis-Wirkungs-Kurven quantifiziert.

[2] = target: T1, frequenzbeeinflussende M-Rezeptoren (Rattus norvegicus, UniProt P10980); assay: Isolated perfused Langendorff heart: antagonism of the negative chronotropic carbachol effect on heart rate (HR/HF); parameters: species or system Wistar Ratten; settings: isolated spontaneously beating rat heart, agonist Carbachol bolus 10⁻⁶ bis 10⁻²M, antagonist in perfusate; read-out: pA₂-Werte Herzfrequenz-Effekt HR (converted)
T1 construct: danach das Herz entnommen; from tissue; host or cells: isolated perfused Langendorff heart of male Wistar rats
T1 sequence (P10980 1-466): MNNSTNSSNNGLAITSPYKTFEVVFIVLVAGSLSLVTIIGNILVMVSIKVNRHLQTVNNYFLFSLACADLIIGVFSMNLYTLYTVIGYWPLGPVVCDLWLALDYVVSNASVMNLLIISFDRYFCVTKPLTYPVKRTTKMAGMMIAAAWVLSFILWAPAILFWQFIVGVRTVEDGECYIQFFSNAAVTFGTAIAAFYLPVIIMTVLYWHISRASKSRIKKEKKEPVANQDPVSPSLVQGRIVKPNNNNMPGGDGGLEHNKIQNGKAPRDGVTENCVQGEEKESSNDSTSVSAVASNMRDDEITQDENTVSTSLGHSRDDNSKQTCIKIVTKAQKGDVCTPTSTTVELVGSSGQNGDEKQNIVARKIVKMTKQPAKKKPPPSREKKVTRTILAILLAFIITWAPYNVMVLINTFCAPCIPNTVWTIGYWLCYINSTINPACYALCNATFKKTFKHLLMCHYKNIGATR
Description: as §1, §2, §3

SMILES: CN1CCC(CC(=O)N2c3ccccc3C(=O)Nc3cccc(Cl)c32)CC1 (racemic) [Substanz I, 6-Chlor-5,10-dihydro-5-[(1-methyl-4-piperidinyl)acetyl]-11H-dibenzo[b,e][1,4]diazepin-11-on]
- Coronarselektivität (Affinität für coronare vs. frequenzbeeinflussende M-Rezeptoren) [1]: höhere Affinität für coronare als für frequenzbeeinflussende M-Rezeptoren
- pA₂-Werte Coronarflußeffekt CF [1]: 7,9 ± 0,2
- Kb [2]: 0.0501 µM

SMILES: CN1CCC(CC(=O)N2c3ccccc3C(=O)Nc3cccc(Cl)c32)CC1 (single isomer, unassigned) [Substanz II, (+)-6-Chlor-5,10-dihydro-5-[(1-methyl-4-piperidinyl)acetyl]-11H-dibenzo[b,e][1,4]diazepin-11-on]
- Coronarselektivität (Affinität für coronare vs. frequenzbeeinflussende M-Rezeptoren) [1]: höhere Affinität für coronare als für frequenzbeeinflussende M-Rezeptoren
- pA₂-Werte Coronarflußeffekt CF [1]: 8,2 ± 0,1
- Kb [2]: 0.0316 µM

SMILES: CN1C2CCC1CC(OC(=O)C(CO)c1ccccc1)C2 (racemic) [Atropin, reference compound]
- Kb ([1]; read-out: pA₂-Werte Coronarflußeffekt CF (converted)): 0.000631 µM
